Source: PubChem BioAssay (NCI)
Where “and” joins values, the source holds several entries; their conditions need not be identical. Equal values may be shown once.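 Step 1: Grow cells in 96-well plates. Step 2: Expose to compound for 48 hours at 5 concentrations. Step 3: Interpolate endpoints linearly; if unreached, use highest concentration. The concentration for 50% growth inhibition is given as GI50. TGI: concentration producing complete growth inhibition.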

Legend:
Experiment in all cases: growth of human tumour cells (NCI), 48 h
[1] = system: MALME-3M melanoma
[2] = system: NCI-H460 lung
[3] = system: SK-MEL-5 melanoma
[4] = system: SF-268 CNS
[5] = system: HS 578T breast
[6] = system: EKVX NSCLC
[7] = system: CAKI-1 renal
[8] = system: MDA-MB-435
[9] = system: UACC-62 melanoma
[10] = system: SF-295 CNS

Row | Compound | GI50 [1] | TGI [1] | TGI [2] [µM] | GI50 [3] [µM] | TGI [3] | GI50 [4] [µM] | TGI [4] [µM] | GI50 [5] [µM] | TGI [5] [µM] | GI50 [6] [µM] | TGI [6] [µM] | GI50 [7] [µM] | TGI [7] [µM] | GI50 [8] [µM] | TGI [8] [µM] | GI50 [9] | TGI [9] | GI50 [10] [µM] | TGI [10] [µM] | GI50 [2]
1 | O=C1C(N2CC2)=C(N2CC2)C(=O)C(N2CC2)=C1N1CC1 | 0.225 µM | 1.31 µM | 0.178 | 0.144 | 0.359 µM | 0.265 | 5.31 | 1.28 | 6.21 | 1.7 | 6.88 | 0.0371 | 2.18 | 0.706 | 2.3 | 0.101 µM | 1.13 µM | < 0.0211 | 1 | 
2 | C=C1/C(=C\C=C2/CCC[C@]3(C)[C@@H]([C@H](C)CCCC(C)(C)O)CC[C@@H]23)C[C@@H](OC(=O)CBr)C[C@@H]1O | 0.184 µM | 0.674 µM | 28 | 2.46 | 6.41 µM | 2.26 | 6.1 | 1.79 | 8.12 | 3.17 | 19.5 | 3.19 | 15.8 | 4.22 | 10.9 | 3.29 µM | 9.84 µM | 6.81 | 20.3 | 12 µM
3 | COc1cc2oc3cc(=O)cc4oc(-c5ccccc5)cc(c2c2c1CCC(c1ccccc1)O2)c43 (configuration not stated) |  | > 100 µM | > 100 |  | 65.1 µM |  | > 100 |  | > 100 |  | > 100 |  | > 100 |  | 56 |  | > 100 µM |  | 54.9 | 
4 | COc1cc2c3c(n(CCCCN)c(=O)c2cc1OC)-c1cc2c(cc1C3=O)OCO2 | 4.11 µM | 11.2 µM | 2.07 | 1.6 | 6.4 µM | 0.801 | 5.55 | 4.6 | 11.8 | 0.744 | 3.57 | 0.656 | 4.12 | 2.29 | 7.32 | 0.216 µM | 1.04 µM | 0.274 | 2.81 | 0.114 µM
5 | COc1cc(NC(C)CCCN)c2ncccc2c1 (configuration not stated) | 19.3 µM and 44.4 µM | 35.7 µM and 60.9 µM | > 100 |  | 32.3 µM and 57.3 µM |  | > 100 |  | > 100 |  | > 100 |  | > 100 |  | > 100 | 20.3 µM and 45.3 µM | 51.9 µM and > 89.5 µM |  | > 100 | 32.8 µM and > 94.8 µM
6 | COc1ccc2c(=O)cc(-c3ccncc3)oc2c1OC |  | 96.9 µM | 72.8 |  | 56.8 µM |  | 91.7 |  | 53.7 |  | > 100 |  | > 100 |  | > 100 |  | 32.3 µM |  | > 100 | 
7 | CN1CCN(CCOc2ccc(-c3cnc4c(-c5ccc(C(F)(F)F)cc5)cnn4c3)cc2)CC1 | 1.48 µM | 2.89 µM | 2.44 | 1.63 | 3.03 µM | 1.7 | 3.44 | 1.62 | 3.41 | 1.51 | 2.97 | 1.42 | 2.72 | 1.61 | 3.02 | 1.69 µM | 3.13 µM | 1.75 | 3.31 | 1.16 µM
8 | COC(=O)[C@@]12OC[C@]34[C@H]([C@@H](O)[C@@H]1O)[C@@]1(C)[C@H](O)C(=O)C=C(C)[C@@H]1C[C@H]3OC(=O)C(OC(C)=O)[C@@H]24 (some centres not stated) | 0.0151 µM | 0.0466 µM | 0.0524 | 0.0162 | 0.0406 µM | 0.0428 | 0.231 | 0.0193 | 0.0523 | 0.0529 | 0.372 | 0.107 | 0.394 | 0.0319 | 0.148 | 0.0245 µM | 0.142 µM | 0.0241 | 0.0847 | 0.0183 µM
9 | C=CCC1(O)c2ccccc2C(=O)c2c(NCCN(CC(=O)OCC)CC(=O)OCC)cccc21 (configuration not stated) | > 100 µM | > 100 µM | > 100 | > 100 | > 100 µM | > 100 | > 100 | > 100 | > 100 | > 100 | > 100 | > 100 | > 100 | > 100 | > 100 | > 100 µM | > 100 µM | > 100 | > 100 | > 100 µM
10 | O=c1oc(Cl)c(Cl)c2ccccc12 | 50 µM | > 100 µM | > 100 | 16.5 | 37 µM | 38.2 | > 100 | 35.1 | 96.2 | 18.8 | 44.3 | 21.5 | 39.6 | 22.3 | 45.9 | 32.9 µM | > 100 µM | 39.4 | > 100 | 55.5 µM
11 | CC1OC(n2c3ccccc3c3c4c(c5c6ccccc6[nH]c5c32)C(=O)N(CCN[C@@H]2CCC[C@H]2N)C4=O)CC(O)C1O (some centres not stated) | 2.06 µM | 9.07 µM | 1.57 | 1.22 | 3.68 µM | 1.48 | 8.06 | 1.63 | 9.73 | 1.8 | 8.35 | 6.24 | 12.9 | 1.44 | 6.46 | 0.872 µM | 2.8 µM | 1.74 | 7.04 | 0.744 µM
12 | CC1CC2OC(=O)C(C)C2CC2(C)C(OC3OC(CO)C(O)C(O)C3O)OCCC12 (configuration not stated) |  | > 100 µM | > 100 |  | > 100 µM |  | > 100 |  | > 100 |  | > 100 |  | > 100 |  | > 100 |  | 30.6 µM |  | > 100 | 
13 | Cc1cc(NCCN(C(C)C)C(C)C)nc(/N=C(\N)Nc2ccc(Cl)c(C(F)(F)F)c2)n1 | 0.183 µM | 0.403 µM | 1.62 | 0.195 | 0.492 µM | 0.67 | 1.76 | 0.473 | 1.69 | 1.48 | 3.75 | 0.427 | 1.02 | 0.196 | 0.389 | 0.198 µM | 0.417 µM | 0.752 | 2.14 | 0.463 µM
14 | c1csc(-c2cn3nc(-c4c[nH]c5ccccc45)sc3n2)c1 | 10.4 µM | 36.9 µM | > 100 | 0.714 | 15.1 µM | 3.84 | > 100 | 2.65 | > 100 | 1.99 | > 100 | 0.997 | > 100 | 0.225 | 0.685 | 0.738 µM | 18.7 µM | 1.74 | 6.44 | 0.574 µM
15 | O=[N+]([O-])c1ccc2c(c1)Cc1cc(N=Cc3ccc4c(c3)OCO4)ccc1-2 |  | > 100 µM | > 100 |  | > 100 µM |  | > 100 |  | > 100 |  | > 100 |  | > 100 |  | > 100 |  | > 100 µM |  | > 100 | 
